In patent EP4755888A1 (ILAb Co., Ltd., priority 2023, dated 2025):

Biological target: PD-1/PD-L1 (Homo sapiens, UniProt Q9NZQ7)
Assay: TR-FRET PD-1/PD-L1 binding inhibition at the molecular level (free proteins)
Settings: Tag1-PD-L1 and Tag2-PD-1 proteins, twelve concentrations from 200 nM, 2 hours at room temperature, read-out: FRET assay (IC50)
Outline: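 HTRF read-out at 665/620 nm after 2 h at room temperature. Detection used anti-Tag1 Eu cryptate plus anti-Tag2 XL665 antibodies. Tagged PD-L1 and PD-1 proteins were pre-mixed with compound across twelve […] 1:2 dilutions starting at 200 nM.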

PD-1/PD-L1, sequence (Q9NZQ7 19-238 limits assumed): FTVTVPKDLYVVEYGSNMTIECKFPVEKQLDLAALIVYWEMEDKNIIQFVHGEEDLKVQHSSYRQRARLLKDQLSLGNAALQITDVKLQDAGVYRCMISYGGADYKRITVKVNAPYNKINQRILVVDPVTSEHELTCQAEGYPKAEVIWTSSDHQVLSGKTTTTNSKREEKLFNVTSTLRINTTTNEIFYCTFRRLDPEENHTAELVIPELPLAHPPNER

| Compound | IC50 [µM] |
| --- | --- |
| Cc1c(NC(=O)c2cc3n(n2)CCCC3NC(C)(C)C(=O)O)cccc1-c1cccc(Nc2nc(C(F)F)nc3cc(CN4CC[C@@H](O)C4)cnc23)c1C (stereo partly drawn) [Compound 137, 2-((2-((3'-((2-(difluoromethyl)-7-(((R)-3-hydroxypyrrolidin-1-yl)methyl)pyrido[3,2-d]pyrimidin-4-yl)amino)-2,2'-dimethyl-[1,1'-biphenyl]-3-yl)carbamoyl)-4,5,6,7-tetrahydropyrazolo[1,5-a]pyridin-4-yl)amino)-2-methylpropanoic acid] | < 0.01 |
| Cc1c(NC(=O)c2cc3n(n2)CCCC3N2CC[C@@H](O)C2)cccc1-c1cccc(Nc2nccc3cc(CN4CC[C@@H](O)C4)cnc23)c1Cl (stereo partly drawn) [Compound 38, N-(2'-chloro-3'-((3-(((R)-3-hydroxypyrrolidin-1-yl)methyl)-1,7-naphthyridin-8-yl)amino)-2-methyl-[1,1'-biphenyl]-3-yl)-4-((R)-3-hydroxypyrrolidin-1-yl)-4,5,6,7-tetrahydropyrazolo[1,5-a]pyridine-2-carboxamide] | 0.01 to 0.1 |
| CC(=O)NCCNC1CCCn2nc(C(=O)Nc3cccc(-c4cccc(Nc5nc(C(F)F)nc6cc(CN7CC[C@@H](O)C7)cnc56)c4Cl)c3Cl)cc21 (stereo partly drawn) [Compound 139, 4-((2-acetamidoethyl)amino)-N-(2,2'-dichloro-3'-((2-(difluoromethyl)-7-(((R)-3-hydroxypyrrolidin-1-yl)methyl)pyrido[3,2-d]pyrimidin-4-yl)amino)-[1,1'-biphenyl]-3-yl)-4,5,6,7-tetrahydropyrazolo[1,5-a]pyridine-2-carboxamide] | 0.01 to 0.1 |
| CC(=O)NCCNC1CCCn2nc(C(=O)Nc3cccc(-c4cccc(NC(=O)c5ccc(CNCCO)cn5)c4Cl)c3Cl)cc21 (stereo not drawn) [Compound 82, 4-((2-acetamidoethyl)amino)-N-(2,2'-dichloro-3'-(5-(((2-hydroxyethyl)amino)methyl)picolinamido)-[1,1'-biphenyl]-3-yl)-4,5,6,7-tetrahydropyrazolo[1,5-a]pyridine-2-carboxamide] | < 0.01 |
| CC(=O)NCCNC1CCCn2nc(C(=O)Nc3cccc(-c4cccc(-c5nc6c(s5)CCN(C)C6)c4C)c3C)cc21 (stereo not drawn) [Compound 152, 4-((2-acetamidoethyl)amino)-N-(2,2'-dimethyl-3'-(5-methyl-4,5,6,7-tetrahydrothiazolo[4,5-c]pyridin-2-yl)-[1,1'-biphenyl]-3-yl)-4,5,6,7-tetrahydropyrazolo[1,5-a]pyridine-2-carboxamide] | 0.01 to 0.1 |
| Cn1c(C(=O)Nc2cccc(-c3cccc(NC(=O)c4cc5n(n4)CCCC5NCC(=O)O)c3Cl)c2Cl)nc2c1CCN(CCC13CCC(C(=O)O)(CC1)C3)C2 (stereo not drawn) [Compound 56, 4-(2-(2-((3'-(4-((carboxymethyl)amino)-4,5,6,7-tetrahydropyrazolo[1,5-a]pyridine-2-carboxamido)-2,2'-dichloro-[1,1'-biphenyl]-3-yl)carbamoyl)-1-methyl-6,7-dihydro-1H-imidazo[4,5-c]pyridin-5(4H)-yl)ethyl)bicyclo[2.2.1]heptane-1-carboxylic acid] | < 0.01 |
| Cc1c(NC(=O)c2cc3n(n2)CCCC3NCCO)cccc1-c1cccc(-c2cc3n(n2)CCCC3NCCO)c1C (stereo not drawn) [Compound 158, 4-((2-hydroxyethyl)amino)-N-(3'-(4-((2-hydroxyethyl)amino)-4,5,6,7-tetrahydropyrazolo[1,5-a]pyridin-2-yl)-2,2'-dimethyl-[1,1'-biphenyl]-3-yl)-4,5,6,7-tetrahydropyrazolo[1,5-a]pyridine-2-carboxamide] | 0.01 to 0.1 |
| CC(=O)NCCNC1CCCn2nc(C(=O)Nc3cccc(-c4cccc(Nc5nccc6cc(CN7CC[C@@H](O)C7)cnc56)c4Cl)c3Cl)cc21 (stereo partly drawn) [Compound 19, 4-((2-acetamidoethyl)amino)-N-(2,2'-dichloro-3'-((3-(((R)-3-hydroxypyrrolidin-1-yl)methyl)-1,7-naphthyridin-8-yl)amino)-[1,1'-biphenyl]-3-yl)-4,5,6,7-tetrahydropyrazolo[1,5-a]pyridine-2-carboxamide] | 0.01 to 0.1 |
| Cc1c(NC(=O)c2cc3n(n2)CCCC3NCCO)cccc1-c1cccc(NC(=O)c2cc3n(n2)CCCC3NCCO)c1C (stereo not drawn) [Compound 6, N,N'-(2,2'-dimethyl-[1,1'-biphenyl]-3,3'-diyl)bis(4-((2-hydroxyethyl)amino)-4,5,6,7-tetrahydropyrazolo[1,5-a]pyridine-2-carboxamide)] | < 0.01 |
| O=C(O)CNC1CCCn2nc(C(=O)Nc3cccc(-c4cccc(NC(=O)c5ccc(CNCCO)cn5)c4Cl)c3Cl)cc21 (stereo not drawn) [Compound 89, 2-((2-((2,2'-dichloro-3'-(5-(((2-hydroxyethyl)amino)methyl)picolinamido)-[1,1'-biphenyl]-3-yl)carbamoyl)-4,5,6,7-tetrahydropyrazolo[1,5-a]pyridin-4-yl)amino)acetic acid] | < 0.01 |
| Cc1c(NC(=O)c2ccc(CNCCO)cn2)cccc1-c1cccc(NC(=O)c2cc3n(n2)CCCC3NC(C)(C)C(=O)O)c1C (stereo not drawn) [Compound 80, 2-((2-((3'-(5-(((2-hydroxyethyl)amino)methyl)picolinamido)-2,2'-dimethyl-[1,1'-biphenyl]-3-yl)carbamoyl)-4,5,6,7-tetrahydropyrazolo[1,5-a]pyridin-4-yl)amino)-2-methylpropanoic acid] | < 0.01 |
| Cc1c(Nc2nccc3cc(CN4CC[C@@H](O)C4)cnc23)cccc1-c1cccc(NC(=O)c2cc3n(n2)CCCC3NCC(=O)O)c1Cl (stereo partly drawn) [Compound 32, 2-((2-((2-chloro-3'-((3-(((R)-3-hydroxypyrrolidin-1-yl)methyl)-1,7-naphthyridin-8-yl)amino)-2'-methyl-[1,1'-biphenyl]-3-yl)carbamoyl)-4,5,6,7-tetrahydropyrazolo[1,5-a]pyridin-4-yl)amino)acetic acid] | < 0.01 |

Now from value to compound:

| IC50 [µM] | Compound |
| --- | --- |
| 0.01 to 0.1 | O=C(Nc1cccc(-c2cccc(Nc3nc(C(F)F)nc4cccnc34)c2Cl)c1Cl)c1cc2n(n1)CCC[C@@H]2N1CCC(C(=O)O)CC1 (stereo in doubt) [Compound 290, (S)-1-(2-((2,2'-dichloro-3'-((2-(difluoromethyl)pyrido[3,2-d]pyrimidin-4-yl)amino)-[1,1'-biphenyl]-3-yl)carbamoyl)-4,5,6,7-tetrahydropyrazolo[1,5-a]pyridin-4-yl)piperidine-4-carboxylic acid] |
| 0.01 to 0.1 | CC(C)(N[C@H]1CCCn2nc(C(=O)Nc3cccc(-c4cccc(Nc5nc(C(F)F)nc6cc(CN7CC[C@@H](O)C7)cnc56)c4Cl)c3Cl)cc21)C(=O)O [Compound 258, 2-(((S)-2-((2,2'-dichloro-3'-((2-(difluoromethyl)-7-(((R)-3-hydroxypyrrolidin-1-yl)methyl)pyrido[3,2-d]pyrimidin-4-yl)amino)-[1,1'-biphenyl]-3-yl)carbamoyl)-4,5,6,7-tetrahydropyrazolo[1,5-a]pyridin-4-yl)amino)-2-methylpropanoic acid] |
| 0.01 to 0.1 | Cc1c(NC(=O)c2cc3n(n2)CCC[C@@H]3N2CCC(O)CC2)cccc1-c1cccc(Nc2nc(C(F)(F)F)nc3cccnc23)c1C [Compound 285, (S)-N-(2,2'-dimethyl-3'-((2-(trifluoromethyl)pyrido[3,2-d]pyrimidin-4-yl)amino)-[1,1'-biphenyl]-3-yl)-4-(4-hydroxypiperidin-1-yl)-4,5,6,7-tetrahydropyrazolo[1,5-a]pyridine-2-carboxamide] |
| 0.01 to 0.1 | O=C(Nc1cccc(-c2cccc(Nc3nccc4cc(CN5CC[C@@H](O)C5)cnc34)c2Cl)c1Cl)c1cc2n(n1)CCN(CCO)C2 [Compound 323, (R)-N-(2,2'-dichloro-3'-((3-((3-hydroxypyrrolidin-1-yl)methyl)-1,7-naphthyridin-8-yl)amino)-[1,1-biphenyl]-3-yl)-5-(2-hydroxyethyl)-4,5,6,7-tetrahydropyrazolo[1,5-a]pyrazine-2-carboxamide] |
| < 0.01 | CN(C)[C@H]1CCCn2nc(C(=O)Nc3cccc(-c4cccc(NC(=O)c5cc6n(n5)CCC[C@@H]6NCCO)c4Cl)c3Cl)cc21 [Compound 313, (S)-N-(2,2'-dichloro-3'-((S)-4-((2-hydroxyethyl)amino)-4,5,6,7-tetrahydropyrazolo[1,5-a]pyridine-2-carboxamido)-[1,1'-biphenyl]-3-yl)-4-(dimethylamino)-4,5,6,7-tetrahydropyrazolo[1,5-a]pyridine-2-carboxamide] |
| < 0.01 | COc1cc(C(=O)Nc2cccc(-c3cccc(NC(=O)c4cc5n(n4)CCCC5NCC(=O)O)c3Cl)c2Cl)cc(F)c1CNCC(=O)O (stereo not drawn) [Compound 191, 2-((4-((3'-(4-((carboxymethyl)amino)-4,5,6,7-tetrahydropyrazolo[1,5-a]pyridine-2-carboxamido)-2,2'-dichloro-[1,1'-biphenyl]-3-yl)carbamoyl)-2-fluoro-6-methoxybenzyl)amino)acetic acid] |
| < 0.01 | O=C(Nc1cccc(-c2cccc(NC(=O)c3cc4n(n3)CCC[C@@H]4NCCO)c2Cl)c1Cl)c1cc2n(n1)CCC[C@@H]2NCCO [Compound 316, (4S,4'S)-N,N'-(2,2'-dichloro-[1,1'-biphenyl]-3,3'-diyl)bis(4-((2-hydroxyethyl)amino)-4,5,6,7-tetrahydropyrazolo[1,5-a]pyridine-2-carboxamide)] |
| 0.01 to 0.1 | COc1nc(-c2cccc(-c3cccc(-c4cc5n(n4)CCCC5NCCO)c3C)c2C)cnc1CNC[C@@H]1CCC(=O)N1 (stereo partly drawn) [Compound 162, (5S)-5-((((5-(3'-(4-((2-hydroxyethyl)amino)-4,5,6,7-tetrahydropyrazolo[1,5-a]pyridin-2-yl)-2,2'-dimethyl-[1,1'-biphenyl]-3-yl)-3-methoxypyrazin-2-yl)methyl)amino)methyl)pyrrolidin-2-one] |
| 0.01 to 0.1 | CN[C@@H]1CCCn2nc(C(=O)Nc3cccc(-c4cccc(NC(=O)c5ccc(CN6CC[C@@H](O)C6)cn5)c4Cl)c3Cl)cc21 [Compound 351, (R)-N-(2,2'-dichloro-3'-(5-(((R)-3-hydroxypyrrolidin-1-yl)methyl)picolinamido)-[1,1'-biphenyl]-3-yl)-4-(methylamino)-4,5,6,7-tetrahydropyrazolo[1,5-a]pyridine-2-carboxamide] |
